For one data set, the system named is IRF3. The experiment in a line: Immunoblot of IRF3 phosphorylation and IFIT1 expression. Format: cell-based, human. Conditions: HepG2-hNTCP and dHepaRG cells, 24 and 48 hours, dose-dependent.
Data set [1] deals with innate immune response genes. The experiment in a line: Innate immune gene mRNA expression (RT-qPCR). Format: cell-based, human. The note with it: HepG2-hNTCP cells, 24 and 72 hours. For orientation: Real-time PCR tracks product formation cycle by cycle.
For a further data set, the system named is HBV. The experiment in a line: HBV replication infection/treatment time course over 20 dpi. Format: cell-based, HBV (Genotype D). Conditions: HepG2-hNTCP; for production of pgRNA (RT-qPCR): 6 dpi to 20 dpi; for capsid-associated intracellular HBV DNA (RC, DL, SS DNA), Southern blot: 6 to 20 dpi; for production of cccDNA over time course: F7 10 μM or poly-U/UC PAMP 100 ng/ml from 24 hours after infection, within 2 dpi; for extracellular HBV DNA (qPCR) / secreted HBsAg in culture supernatant (ELISA): infection/treatment time course. The procedure:
FIGS. 9A-9E illustrate kinetics of HBV replication in parallel cultures of cells during treatment with F7 or poly-U/UC PAMP. (9A) HepG2-hNTCP cells were infected with HBV at a moi of 1000 Geq/cell. After 24 hours the cells were treated with F7 (10 μM) (upper), or 100 ng/ml X RNA or 100 ng/ml poly-U/UC PAMP (lower). Cells were harvested at each time point, Hirt supernatants prepared and subjected to Southern blot analysis. (B) HBV pgRNA was analyzed by RT-qPCR. Values from 20 Dpi of ‘HBV only’ was set to 100% for RT-PCR analysis. Data was presented as mean±standard deviations (SD), ***P<0.001, ****P 21 0.0001; and ns=non-significant (9C) HBV intracellular capsid-associated DNA from cells treated with 10 uM F7 (upper) or 100 ng/ml XRNA or poly-U/UC PAMP (lower) was analyzed by Southern blot. (9D) Secreted HBsAg from HBV-infected cells treated with F7 (upper) or poly-U/UC (lower) was detected by ELISA. (9E) Extracellular HBV-DNA was measured by qPCR from cells treated with 10 uM (left) or 100 ng/ml XRNA or poly-U/UC PAMP (right). Data are presented as mean±standard deviation (SD) from three independent experiments. ***P 0.0002.
To further determine how the activation of IRF3 impacts the HBV replication cycle, the expression of viral DNA, viral RNA, extracellular HBV DNAs and secreted HBsAg were analyzed over an infection/treatment time course. […] The level of capsid-associated intracellular HBV DNA intermediates of reverse transcription produced over the HBV infection/treatment time course were also measured.
HBV infection HBV (Genotype D) was purified from the supernatant of HepAD38 cells by PEG concentration and subsequent sucrose gradient, as described previously (Ko, C., et al. (2014). DDX3 DEAD-Box RNA Helicase Is a Host Factor That Restricts Hepatitis B Virus Replication at the Transcriptional Level. Journal of Virology 88, 13689-13698; Watashi, K., et al. (2013), supra). For HBV infection cells were seeded into collagen-coated plates. One day later, the cells were infected with HBV in DMEM containing 4% polyethylene glycol 8000 (PEG-8000). The multiplicities of infection (expressed as virus genome equivalent/cell) are indicated in each Figure Legend. The inocula were removed 24 hours later, and the infected cultures were maintained in complete DMEM containing 2.5% DMSO until harvesting, as described previously (Ni, Y., et al. (2014). Hepatitis B and D viruses exploit sodium taurocholate co-transporting polypeptide for species-specific entry into hepatocytes. Gastroenterology 146, 1070-1083).
Reverse transcription quantitative real time qPCR (RT-qPCR) analysis: Total cellular RNAs were extracted from cells using TRIZOL reagent and the manufacturers protocol (Invitrogen). cDNA was synthesized from the purified RNA by both random and oligo (dT) priming using iScript select cDNA synthesis kit (Biorad, Inc.). For HBV cccDNA expression analysis, total DNA was extracted using the DNeasy kit (QIAGEN). For selective cccDNA PCR analysis, isolated DNAs were treated with 10 Units of T5 exonuclease (NEB) for 30 min in 10 μl of reaction volume in 37° C., followed by heat-inactivation at 95° C. for 5 min and 4-fold dilution with Nuclease-free water. For extra-cellular HBV DNA quantification, an external HBV plasmid standard was used to program the PCR (Ko, C., et al. (2018), supra). Relative mRNA levels of all target genes were quantified by RT-qPCR performed using the ΔΔCT method, and expression levels were normalized to house-keeping genes. Real-time PCR assays were carried out using the SYBR green method (Applied Biosystems) performed using an Applied Biosystems 7300 thermocycler. […]

Consider 2 molecules from patent publication US20220241314A1, “COMPOSITIONS AND METHODS FOR TREATMENT OF HEPATITIS B VIRUS INFECTION” (priority 2019, published 2022).

{ppp} = triphosphate

Turning to `O=C(Nc1ccc2nc(NC(=O)c3ccc4ccccc4c3)sc2c1)c1ccccc1` [F7, N-(6-benzamido-1,3-benzothiazol-2-yl)naphthalene-2-carboxamide], the “IRF3 phosphorylation and IFIT1 expression” value in the data set with IRF3 was “specifically induced IRF3 phosphorylation and the expression of IFIT1”. For the same molecule, the “mRNA expression of innate immune response genes (IFNs, ISGs, IRF3-target genes)” value in data set [1] was “induced only IRF3-target gene expression”. In addition, in the data set with HBV, the “production of pgRNA (RT-qPCR)” value is given as “significantly suppressed”; the “capsid-associated intracellular HBV DNA (RC, DL, SS DNA), Southern blot” value is on record as “markedly decreased the levels of these DNA species”; the “production of cccDNA over time course” value is “markedly suppressed”; the “extracellular HBV DNA (qPCR)” value is reported as “reduction of extracellular HBV DNA”. For the same molecule, in the data set with HBV, the “secreted HBsAg in culture supernatant (ELISA)” value is reported as “significant reduction in the level of secreted HBsAg”.

B1: poly-U/UC PAMP: ~100 nt PAMP motif from the HCV genome comprising 5′ppp and the poly U/UC region, recognized by RIG-I; formulated in liposome (nucleic acid)
chain: GGCCAUCCUGUUUUUUUCCCUUUUUUUUUUUCUUUUUUUUUUUUUUUUUUUUUUUUUUUUUUUUUUCUCCUUUUUUUUUCCUCUUUUUUUCCUUUUCUUUCCUUU
modifications: RNA, 5' {ppp}, backbone and methylation of C not given here; formulated in liposome
notes: ~100 nt PAMP motif from the HCV genome comprising 5′ppp and the poly U/UC region, recognized by RIG-I; formulated in liposome
Take B1: the “IRF3 phosphorylation and IFIT1 expression” value in the data set with IRF3 was “specifically induced IRF3 phosphorylation and the expression of IFIT1”. The “mRNA expression of innate immune response genes (IFNs, ISGs, IRF3-target genes)” value in data set [1] was “induced type I and type III IFN and ISG expression”. In the data set with HBV, the “production of pgRNA (RT-qPCR)” value is reported as “significantly suppressed”; the “capsid-associated intracellular HBV DNA (RC, DL, SS DNA), Southern blot” value is reported as “markedly decreased the levels of these DNA species”; the “production of cccDNA over time course” value is recorded as “markedly suppressed”; the “extracellular HBV DNA (qPCR)” value was “reduction of extracellular HBV DNA”. Further, in the data set with HBV, the “secreted HBsAg in culture supernatant (ELISA)” value is recorded as “significant reduction in the level of secreted HBsAg”.
